Data set [1] is described as follows: In vitro plasma stability, human plasma (Example 19.11). It is filed as in vitro ADME. Also on record: dose or concentration left out as unconfirmed. Conditions: 37° C. The method, then:
(§1) In vitro plasma metabolic stability was studied in male Sprague Dawley rats and human. Test compound were incubated […] for 2 hours at 37° C. At each time point (0, 0.25, 1 and 2 h), samples were prepared for analysis by means of a single step protein precipitation technique by adding 150 μL of ethanol, 0.1% formic acid to 50 μL aliquots of plasma. Samples were mixed by vortex for homogeneity and then subjected to centrifugation at 14000 rpm for 15 min. The supernatant (100 μL) was collected, diluted with 100 μL of water, 0.1% formic acid and analyzed by LC-HRMS (TripleTOF 6600+, AB Sciex). For each test compound, the area ratios at each time point were compared to the 0 h area ratio and converted to a percentage remaining.

Data set [2] can be described thus: Chemical stability as % loss by LC-UV, 28 days 40° C. vs 5° C. (Example 19.11). It is filed as physicochemical. The method, then: (§2) As for example 15 above, also the chemical stability of representative examples of these FA modified peptides has been assessed, using LC-UV instead of light scattering. Solubility and chemical stability were studied in 100 mM phosphate buffer (pH 7.4) and 100 mM acetate buffer (pH 4.5). Test compound powders were dissolved in both buffers at a target concentration of 10 mg/mL and incubated for 1 hour at room temperature. After centrifugation at 2500 rcf for 15 minutes, […] of supernatant was diluted with […] of the incubation buffer and analyzed by LC-UV (Acquity UPLC-DAD, Waters). Solubility was calculated by comparing the peak area of the test compound in the buffer sample with the peak area of the same compound dissolved at 0.5 mg/ml in water:acetonitrile 1:1, 0.1% formic acid.
From the centrifuged supernatant, two additional […] aliquots were collected and diluted with […] of incubation buffer. One aliquot was stored at 5° C., while the other was stored at 40° C. After 28 days, the samples were analyzed by LC-UV. Chemical stability was calculated as % loss using the following equations: • Chemical stability (as % loss)=[(purity after 28 days at 5° C.)−(purity after 28 days at 40° C.)]×100/(purity after 28 days at 5° C.) % purity=[(peak area compound)×100/(total peak area)]

The nature of data set [3]: Buffer solubility by LC-UV, pH 7.4 phosphate and pH 4.5 acetate (Example 19.11). The data set is classed as physicochemical. The settings on record: target 10 mg/mL. How it is done:
as §2

For data set [4], the target named is T1, CRF1R receptor (Homo sapiens, UniProt P34998).
T1 construct: host or cells: CHO-K1 clone 2
T1 sequence (P34998 24-415): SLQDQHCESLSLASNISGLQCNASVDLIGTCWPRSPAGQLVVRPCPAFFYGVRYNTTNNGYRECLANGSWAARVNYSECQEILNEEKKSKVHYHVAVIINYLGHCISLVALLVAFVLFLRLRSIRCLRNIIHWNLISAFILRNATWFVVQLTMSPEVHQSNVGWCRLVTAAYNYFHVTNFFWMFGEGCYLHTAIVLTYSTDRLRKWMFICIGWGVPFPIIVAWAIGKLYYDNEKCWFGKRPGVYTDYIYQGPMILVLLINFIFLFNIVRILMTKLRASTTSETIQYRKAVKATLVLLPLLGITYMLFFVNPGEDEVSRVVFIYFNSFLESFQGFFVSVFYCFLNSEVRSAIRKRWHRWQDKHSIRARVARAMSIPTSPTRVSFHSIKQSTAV
Kind of data set: cAMP activity at anti-target CRF1R, CHO-K1 cell line clone 2 (Example 19.10). It is filed as cell-based. Conditions: for Emax: 100% = Sauvagine at 100 nM; for CRF1/CRF2 ratio: ratio of CRF1 EC50 to CRF2 EC50. In short, it runs like this: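 A CRF1R-overexpressing CHO-K1 line (clone 2) was grown in F12/10% FBS/G418 and frozen in aliquots before use. The cAMP assay followed the preceding procedure, with 100% activation defined by Sauvagine at 100 nM.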

The nature of data set [5]: In vitro plasma stability, rat plasma (Example 19.11). It is filed as in vitro ADME, Sprague Dawley rats. Further details: remaining at 2 h: dose or concentration left out as unconfirmed. Conditions: 37° C.; for remaining at 2 h: male, Sprague Dawley, rat, plasma. How it is done: as §1
The target of data set [6] is T2, human CRF2α receptor (Homo sapiens, UniProt Q13324).
T2 construct: expressed in transfected cells; host or cells: TeloHEAC
T2 sequence (Q13324 1-411): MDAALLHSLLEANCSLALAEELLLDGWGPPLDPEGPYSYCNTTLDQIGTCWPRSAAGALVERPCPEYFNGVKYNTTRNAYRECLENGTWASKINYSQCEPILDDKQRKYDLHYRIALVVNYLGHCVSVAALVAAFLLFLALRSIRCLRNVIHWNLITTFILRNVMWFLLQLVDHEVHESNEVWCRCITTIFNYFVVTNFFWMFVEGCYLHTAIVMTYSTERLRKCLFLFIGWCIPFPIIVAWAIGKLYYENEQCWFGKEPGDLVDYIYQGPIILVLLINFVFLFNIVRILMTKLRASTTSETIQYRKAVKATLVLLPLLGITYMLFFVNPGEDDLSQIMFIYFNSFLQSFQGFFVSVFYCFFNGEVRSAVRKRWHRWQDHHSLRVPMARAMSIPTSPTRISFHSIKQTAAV
Kind of data set: cAMP agonism at human CRF2α receptor in TeloHEAC cells, FA modified peptides (Example 19.9). Conditions: 0% HSA, relative to urocortin 2. The data set is classed as cell-based. An outline of the steps: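 Efficacy and EC50 are referenced to 100 nM urocortin 2 as 100%, with cAMP measured as the 665/620 nm HTRF ratio after 1 h at room temperature. Compounds (0.5 mM DMSO stock, 16 twofold dilutions) acted 30 min at 37 °C on CRF2α-expressing TeloHEAC cells, buffer containing IBMX and 0% or 0.2% HSA.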

Where [7] appears, read: pH 7.4, 100 mM phosphate buffer.
Where [8] appears, read: 0% HSA, CRF1R CHO-K1 clone 2, read-out: EC50 [nM] 0% HSA.
Setting [9] is: Table 20 side-to-side comparison, read-out: CRF1 EC50.

In brackets after ≈: the same amount, converted by molar mass. Like-named read-outs stand apart in the source and are kept apart here. Starred links: 1 amine or outer side, 2 acyl side, 3 side chain; linkers in the order of their positions; H or OH if unused. Non-standard residues stand in square brackets, D forms with d. Residues, ends and D or L forms follow the SMILES beside them. Groups on a side chain read outwards from the residue. *: point of attachment. C16 diacid = O=C(O)CCCCCCCCCCCCCCC(=O)*; γGlu = O=C(O)[C@H](CCC(=O)[*:2])N[*:1]; Aib = CC(C)(N)C(=O)O

Usually solubility stands for the concentration that dissolves in the medium under given conditions. Broadly, the EC50 is the concentration at which the effect is half-maximal. As usually defined, the Emax is the greatest response seen or fitted, relative to the assay's reference.

Regarding `CC[C@H](C)[C@H](N)C(=O)N[C@H](C(=O)N[C@@H](CC(C)C)C(=O)N[C@@H](CO)C(=O)N[C@@H](CC(C)C)C(=O)N[C@@H](CC(=O)O)C(=O)N[C@@H](C(=O)N1CCC[C@H]1C(=O)N[C@H](C(=O)N[C@@H](CCCCN)C(=O)N[C@@H](CC(C)C)C(=O)N[C@@H](CCCCNC(=O)CC[C@H](NC(=O)CCCCCCCCCCCCCCC(=O)O)C(=O)O)C(=O)N[C@@H](CCC(N)=O)C(=O)N[C@H](C(=O)N[C@@H](CC(C)C)C(=O)N[C@@H](CC(C)C)C(=O)N[C@@H](CCCCN)C(=O)N[C@@H](CCC(N)=O)C(=O)N[C@@H](CCC(=O)O)C(=O)N[C@@H](CCCNC(=N)N)C(=O)N[C@@H](CCC(N)=O)C(=O)N[C@@H](CCCCN)C(=O)NC(C)(C)C(=O)N[C@@H](CCC(N)=O)C(=O)N[C@@H](CCCNC(=N)N)C(=O)N[C@@H](CCC(=O)O)C(=O)N[C@@H](CCC(N)=O)C(=O)N[C@@H](C)C(=O)N[C@@H](CCC(=O)O)C(=O)N[C@@H](CCCCN)C(=O)N[C@@H](CC(N)=O)C(=O)N[C@@H](CCCCN)C(=O)N[C@@H](CCC(N)=O)C(=O)N[C@H](C(=O)N[C@@H](CC(C)C)C(=O)N[C@@H](C)C(=O)N[C@@H](CCC(N)=O)C(=O)N[C@H](C(N)=O)C(C)C)[C@@H](C)CC)[C@@H](C)CC)[C@@H](C)CC)C(C)C)C(C)C` [compound 187] (H-IVLSLD[dV]PIKLK([γGlu-C16 diacid])QILLKQERQK[Aib]QREQAEKNKQILAQV-NH2), the fraction remaining at 2 h in data set [1] came to 97%; in data set [5], 102%. The “% loss (chemical stability)” value in data set [2] (pH 4.5) is reported as 0%; in data set [2] (pH 7.4) it was 31%. For the same compound, the solubility at 1 h is 8200 µg/mL (≈ 1690 µM) in data set [3] (pH 4.5, 100 mM acetate buffer) and 8800 µg/mL (≈ 1810 µM) in data set [3] (setting [7]). Moreover, the EC50 in data set [4] (setting [8]) was > 100 nM; in data set [4] (setting [9]), > 100 nM; in data set [6] it was 0.44 nM. The compound further returned an Emax in data set [4] (CRF1R CHO-K1 clone 2) of 43.8%. In addition, in data set [4], the CRF1/CRF2 ratio is given as >500. Also, in data set [5] (120 min), the “% remaining at 2 hours” value was 92%.

On to `CC[C@H](C)[C@H](N)C(=O)N[C@H](C(=O)N[C@@H](CC(C)C)C(=O)N[C@@H](CO)C(=O)N[C@@H](CC(C)C)C(=O)N[C@@H](CC(=O)O)C(=O)N[C@@H](C(=O)N1CCC[C@H]1C(=O)N[C@H](C(=O)N[C@@H](CCCCN)C(=O)N[C@@H](CC(C)C)C(=O)N[C@@H](CCCCNC(=O)CC[C@H](NC(=O)CCCCCCCCCCCCCCC(=O)O)C(=O)O)C(=O)N[C@@H](CCC(N)=O)C(=O)N[C@H](C(=O)N[C@@H](CC(C)C)C(=O)N[C@@H](CC(C)C)C(=O)N[C@@H](CCCCN)C(=O)N[C@@H](CCC(N)=O)C(=O)N[C@@H](CCC(=O)O)C(=O)N[C@@H](CCCNC(=N)N)C(=O)N[C@@H](CCC(N)=O)C(=O)N[C@@H](CCCCN)C(=O)N[C@@H](CCCCN)C(=O)NC(C)(C)C(=O)N[C@@H](CCCNC(=N)N)C(=O)N[C@@H](CCC(N)=O)C(=O)N[C@@H](CCCCN)C(=O)N[C@@H](C)C(=O)N[C@@H](CCC(=O)O)C(=O)N[C@@H](CCCCN)C(=O)N[C@@H](CC(N)=O)C(=O)N[C@@H](CCCCN)C(=O)N[C@@H](CCC(N)=O)C(=O)N[C@H](C(=O)N[C@@H](CC(C)C)C(=O)N[C@@H](C)C(=O)N[C@@H](CCC(N)=O)C(=O)N[C@H](C(N)=O)C(C)C)[C@@H](C)CC)[C@@H](C)CC)[C@@H](C)CC)C(C)C)C(C)C` [compound 189] (H-IVLSLD[dV]PIKLK([γGlu-C16 diacid])QILLKQERQKK[Aib]RQKAEKNKQILAQV-NH2; N-terminus assumed), for which the fraction remaining at 2 h is 97% in data set [1] and 101% in data set [5]. The “% loss (chemical stability)” value in data set [2] (pH 4.5) is 0%; in data set [2] (pH 7.4), 48%. The solubility at 1 h stood at 9000 µg/mL (≈ 1860 µM) in data set [3] (pH 4.5, 100 mM acetate buffer) and 6300 µg/mL (≈ 1300 µM) in data set [3] (setting [7]). Also, the results for the EC50 in data set [4] (setting [8]), in data set [4] (setting [9]) and in data set [6] were > 100 nM, > 100 nM and 3.49 nM, respectively. In data set [4] (CRF1R CHO-K1 clone 2), this compound showed an Emax of 15%. Besides, the CRF1/CRF2 ratio in data set [4] was >500.

With `CC[C@H](C)[C@H](N)C(=O)N[C@H](C(=O)N[C@@H](CC(C)C)C(=O)N[C@@H](CO)C(=O)N[C@@H](CC(C)C)C(=O)N[C@@H](CC(=O)O)C(=O)N[C@@H](C(=O)N1CCC[C@H]1C(=O)N[C@H](C(=O)NCC(=O)N[C@@H](CC(C)C)C(=O)N[C@@H](CCCCNC(=O)CC[C@H](NC(=O)CCCCCCCCCCCCCCC(=O)O)C(=O)O)C(=O)N[C@@H](CCC(N)=O)C(=O)N[C@H](C(=O)N[C@@H](CC(C)C)C(=O)N[C@@H](CC(C)C)C(=O)N[C@@H](CCCCN)C(=O)N[C@@H](CCC(N)=O)C(=O)N[C@@H](CCC(=O)O)C(=O)N[C@@H](CCCNC(=N)N)C(=O)N[C@@H](CCC(N)=O)C(=O)N[C@@H](CCCCN)C(=O)N[C@@H](CCCCN)C(=O)NC(C)(C)C(=O)N[C@@H](CCCNC(=N)N)C(=O)N[C@@H](CCC(=O)O)C(=O)N[C@@H](CCC(N)=O)C(=O)N[C@@H](C)C(=O)N[C@@H](CCC(=O)O)C(=O)N[C@H](C(=O)N[C@@H](CC(N)=O)C(=O)N[C@@H](CCCCN)C(=O)N[C@@H](CCC(N)=O)C(=O)N[C@H](C(=O)N[C@@H](CC(C)C)C(=O)N[C@@H](C)C(=O)N[C@@H](CCC(N)=O)C(=O)N[C@H](C(N)=O)C(C)C)[C@@H](C)CC)[C@@H](C)O)[C@@H](C)CC)[C@@H](C)CC)C(C)C)C(C)C` [compound 194] (H-IVLSLD[dV]PIGLK([γGlu-C16 diacid])QILLKQERQKK[Aib]REQAETNKQILAQV-NH2; N-terminus assumed), the values for the fraction remaining at 2 h in data set [1] and in data set [5] were 101% and 85%, respectively. Besides, the solubility at 1 h in data set [3] (pH 4.5, 100 mM acetate buffer) was determined as 7300 µg/mL (≈ 1540 µM); in data set [3] (setting [7]), 700 µg/mL (≈ 147 µM). The results for the EC50 in data set [4] (setting [8]) and in data set [6] were > 100 nM and 0.11 nM, respectively. In data set [4] (CRF1R CHO-K1 clone 2), this compound displayed a maximal effect (Emax) of 21.6%.

These data come from US12679878B2, “CRF2 receptor agonists and their use in therapy” (SANOFI, priority 2020, dated 2026).
